Measurements as given in article PMC10840383, “Clinical features, functional consequences, and rescue pharmacology of missense GRID1 and GRID2 human variants” (Human Molecular Genetics, 2023).

Target: T1, GluD1-N651S (Homo sapiens, UniProt Q9ULK0, N651S)
T1 construct: expressed in transfected cells; host or cells: Xenopus laevis oocytes injected with cRNA
T1 sequence (Q9ULK0 21-1009 N651S): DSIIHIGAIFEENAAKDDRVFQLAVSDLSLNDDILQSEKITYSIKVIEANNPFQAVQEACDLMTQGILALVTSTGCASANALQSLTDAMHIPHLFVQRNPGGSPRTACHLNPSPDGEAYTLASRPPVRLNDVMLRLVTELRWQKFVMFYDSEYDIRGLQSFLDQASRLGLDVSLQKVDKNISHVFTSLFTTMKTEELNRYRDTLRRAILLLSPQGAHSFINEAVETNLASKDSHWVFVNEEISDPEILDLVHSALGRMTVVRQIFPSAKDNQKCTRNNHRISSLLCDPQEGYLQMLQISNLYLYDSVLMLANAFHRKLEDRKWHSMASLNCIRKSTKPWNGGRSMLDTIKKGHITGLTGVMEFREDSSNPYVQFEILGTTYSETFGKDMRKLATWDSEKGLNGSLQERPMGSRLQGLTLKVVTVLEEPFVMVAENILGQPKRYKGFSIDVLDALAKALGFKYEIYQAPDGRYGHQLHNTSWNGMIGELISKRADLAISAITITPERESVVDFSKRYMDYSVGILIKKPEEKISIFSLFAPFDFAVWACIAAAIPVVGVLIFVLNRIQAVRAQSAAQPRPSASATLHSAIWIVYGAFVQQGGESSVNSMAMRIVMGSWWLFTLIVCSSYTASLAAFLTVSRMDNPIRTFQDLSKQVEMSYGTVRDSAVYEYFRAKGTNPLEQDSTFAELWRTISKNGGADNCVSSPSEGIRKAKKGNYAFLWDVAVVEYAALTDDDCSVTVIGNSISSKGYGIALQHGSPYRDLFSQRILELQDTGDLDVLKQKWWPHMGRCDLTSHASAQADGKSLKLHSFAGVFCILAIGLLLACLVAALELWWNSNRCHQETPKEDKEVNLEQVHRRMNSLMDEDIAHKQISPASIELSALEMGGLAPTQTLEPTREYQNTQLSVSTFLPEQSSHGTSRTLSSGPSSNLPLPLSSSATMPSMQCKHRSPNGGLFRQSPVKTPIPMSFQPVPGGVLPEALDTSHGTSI
Test: TEVC of constitutive current, Xenopus oocytes expressing GluD1-N651S
Type: cell-based
Conditions: positive = increase, negative = decrease of activity

N[C@H](CO)C(=O)O [D-serine]
D-Serine effect (Baseline −10 mM D-Serine) (10 mM D-serine): 7.6 ± 1.6 (10) nA

N=C(N)c1ccc(OCCCCCOc2ccc(C(=N)N)cc2)cc1 [Pentamidine, pentamidine]
Pentamidine effect (Baseline −100 μM Pentamidine) (100 μM pentamidine): 38 ± 8.3 (10) nA
